Where two headings read alike, the source gives them in different places.
Experiments:
[1] = test system: influenza strain A/VN/1203/2004 (H5N1); experiment: microbe, parasite or virus in culture; format: cell-based, Influenza A virus (H5N1)
[2] = test system: Madin Darby Canine Kidney (MDCK) cells; experiment: cells; format: cell-based; conditions: Canis lupus familiaris, MDCK, read-out: IC50 (toxicity)
[3] = Influenza A virus, H5N1, MDCK, 72 h, read-out: H5N1 EC50 (@ 50% Via)
[4] = Influenza A virus, H5N1, MDCK, 72 h, read-out: H5N1 EC50 (Inf Pt)
[5] = read-out: H5N1 EC50 (@ 50% Via)

| SMILES | EC50 [1, 3] [µM] | EC50 [1, 4] [µM] | IC50 [2] [µM] | EC50 [1, 5] [µM] | EC50 ([1]; read-out: H5N1 EC50 (Inf Pt)) [µM] |
| --- | --- | --- | --- | --- | --- |
| COc1cccc(-c2nc(O)nc3c2CCc2c(OC)cccc2-3)c1 [compound 22112] | > 50 | > 50 | > 50 | – | – |
| COc1ccc(C2NC(=O)NC3=C2CCN(C(C)=O)c2ccccc23)cc1Br (stereo not drawn) [28000A] | > 20 | – | – | – | – |
| COc1ccc(C2NC(=O)NC3=C2CCc2ccccc23)cc1O (stereo not drawn) [compound 22407] | > 50 | > 50 | > 50 | – | – |
| CC1CC2=C(NC(=O)NC2c2ccc3c(c2)OCO3)c2ccccc21 (stereo not drawn) [compound 22342] | 0.72 | 0.39 | > 50 | – | – |
| COc1cccc2c1CCc1c(-c3ccc(C)cc3)nc(O)nc1-2 [compound 22088] | – | – | > 50 | 15.4 | – |
| COc1ccc(C2NC(=O)N(O)C3=C2CCc2ccccc23)cc1Br (stereo not drawn) [compound 22708] | 1.1 | > 0.95 | > 50 | – | – |
| COc1ccc(C2NC(=O)NC3=C2CN(C)c2ccccc23)cc1Br (stereo not drawn) [compound 23101] | > 6 | > 6 | > 40 | – | – |
| COc1ccc(C2NC(=O)NC3=C2CCc2ccccc23)c(OC)c1OC (stereo not drawn) [compound 22410] | > 50 | > 50 | > 50 | – | – |
| Cc1cc(C2NC(=O)NC3=C2CCc2ccccc23)cc(C)c1O (stereo not drawn) [compound 22705] | > 40 | 10 | > 40 | – | – |
| COc1ccc(C2NC(=O)NC3=C2CN(C(=O)Cn2ccnc2)c2ccccc23)cc1Br (stereo not drawn) [compound 25010] | < 0.316 | 0.082 | > 40 | – | – |
| O=C1NC2=C(CCc3ccccc32)C(c2ccc(Cl)c(Cl)c2)N1 (stereo not drawn) [compound 22130] | – | – | > 50 | – | – |
| COc1ccc(C2NC(=O)NC3=C2CNc2ccccc23)cc1Br (stereo not drawn) [compound 23100] | 0.637 | 0.718 | > 40 | – | – |
| COc1ccc(C2NC(=O)NC3=C2CN(C(=O)c2ccncc2)c2ccccc23)cc1Br (stereo not drawn) [compound 23208] | > 40 | > 40 | > 40 | – | – |
| O=C1NC2=C(CCCc3ccccc32)C(c2ccc3c(c2)OCO3)N1 (stereo not drawn) [compound 22117] | 4.8 | 2.9 | > 50 | 6.8 | 4 |
| O=C1NC2=C(CCc3ccccc32)C(c2cccnc2)N1 (stereo not drawn) [compound 22086] | > 50 | – | > 50 | – | – |
| O=C1NC2=C(CCc3ccccc32)C(c2ccc3c(c2)OCCO3)N1 (stereo not drawn) [compound 22343] | 45.7 | 31.9 | > 50 | – | – |

| SMILES | EC50 [1, 3] [µM] | EC50 [1, 4] [µM] | IC50 [2] [µM] | EC50 [1, 5] [µM] | EC50 ([1]; read-out: H5N1 EC50 (Inf Pt)) [µM] |
| --- | --- | --- | --- | --- | --- |
| COc1ccc(C2NC(=O)NC3=C2CN(C(=O)CNCCN2CCOCC2)c2ccccc23)cc1Br (stereo not drawn) [compound 25011] | 3.9 | 3.9 | > 40 | – | – |
| COc1ccc(C2NC(=O)NC3=C2CN(C(=O)C[n+]2ccccc2)c2ccccc23)cc1Br (stereo not drawn) [compound 25009] | 7.1 | 7.1 | > 40 | – | – |
| Cc1cccc(C2NC(=O)NC3=C2CCc2ccccc23)c1 (stereo not drawn) [compound 22081] | – | 0.55 | > 50 | – | 0.52 |
| O=C1NC2=C(Cc3ccccc32)C(c2ccc3c(c2)OCO3)N1 (stereo not drawn) [compound 22126] | > 50 | > 50 | > 50 | – | – |
| COc1cccc(C2NC(=O)NC3=C2CCc2c(OC)cccc23)c1 (stereo not drawn) [compound 22111] | > 50 | > 50 | > 50 | – | – |
| Cc1ccc(-c2nc(O)nc3c2COc2ccccc2-3)cc1C [compound 22106] | > 50 | > 50 | > 50 | – | – |
| Nc1cccc(C2NC(=O)NC3=C2CCc2ccccc23)c1 (stereo not drawn) [compound 22348] | > 50 | > 50 | > 50 | – | – |
| COc1cccc2c1CCc1c(-c3ccc(C)c(C)c3)nc(O)nc1-2 [compound 22114] | 13.5 | – | > 50 | 9.1 | – |
| CCOC(=O)CCC(=O)N1CC2=C(NC(=O)NC2c2ccc(OC)c(Br)c2)c2ccccc21 (stereo not drawn) [compound 25484] | > 20 | – | – | – | – |
| COc1ccc(C2NC(=O)N(Cl)C3=C2CCc2ccccc23)cc1Br (stereo not drawn) [compound 22707] | 0.192 | 0.186 | > 50 | – | – |
| Oc1nc(-c2ccc3c(c2)OCO3)c2c(n1)-c1ccccc1CCC2 [compound 22118] | > 50 | > 50 | > 50 | – | – |
| COc1nc(-c2ccc3c(c2)OCO3)c2c(n1)-c1ccccc1CC2 [compound 22402] | 8.4 | 5.2 | > 50 | 14.5 | 5.7 |
| COc1ccc(C2NC(=O)NC3=C2COc2ccccc23)cc1 (stereo not drawn) [compound 22129] | > 50 | > 50 | > 50 | – | – |
| COc1cc(OC)cc(C2NC(=O)NC3=C2CCc2ccccc23)c1 (stereo not drawn) [compound 22518] | 4.7 | 3.4 | > 50 | – | – |
| COc1ccc(C2NC(=O)NC3=C2CCN(C(=O)COC(C)=O)c2ccccc23)cc1Br (stereo not drawn) [28002A] | > 20 | – | – | – | – |

Reference: US20120040966A1, “ANTI-VIRAL COMPOUNDS, TREATMENT, AND ASSAY” (priority 2008, published 2012)
